These results are taken from EP1338280A1, “COMBINATION OF AMINES AND VANADIUM (IV)/(V) COMPOUNDS FOR THE TREATMENT AND/OR PREVENTION OF DIABETES MELLITUS” (priority 2000, dated 2002).

The test system of one series is isolated rat adipocytes. Kind of series: Hexose transport ([3H]-2-deoxyglucose uptake) in isolated rat adipocytes. The class given is cell-based. Conditions: for 2-deoxyglucose uptake (stimulatory effect): benzylamine or orthovanadate alone, 45 min incubation, ten-minute uptake; for glucose transport: 45 min preincubation of fat cells with increasing concentrations, 5-min 2-DG uptake. More on the design: 2-deoxyglucose uptake (stimulatory effect): dose or concentration left out as unconfirmed. Here is the method:
Adipocyte isolation. Male Wistar rats (200-260 g) were sacrificed in a fed state, and the internal epididymal adipose tissues was dissected out and digested in Krebs-Ringer buffer as described (cf. C. Carpene et al., Biochem. PharmacoL 1990, voL 40, pp. 437-445). Adipose cells isolated is such a way were used in subsequent studies.
Hexose transport After a preincubation period of 45 min at 37 °C in vials containing 400 µl of cell suspension in KRBH with the tested products, [^3H]-2-deoxyglucose was added at a final concentration of 0.1 mM (approx. 1,300,000 d.p.m./vial). The assays were further incubated for 5 or 10 min and then stopped with 100 µl of cytochalasin B. Aliquots (200 µl) of the cell suspension were centrifuged in microtubes as described (cf. J.M. Olefsky, Biochem. J. 1978, voL 172, pp. 137-145). After centrifugation, the fat cells (upper part of the tubes) were placed in scintillation vials and the incorporated radioactivity was counted.

The next series has as its system GLUT4. Kind of series: GLUT4 translocation: Western blot of GLUT4 in plasma membrane and low density microsome fractions of rat adipocytes. The class given is cell-based. More on the design: abundance of GLUT4 in plasma membranes: dose or concentration left out as unconfirmed. To be noted: for abundance of GLUT4 in plasma membranes: 45 minutes incubation, benzylamine or orthovanadate alone. Here is the method:
To verify whether the stimulation of glucose transport in rat adipocytes may be explained by a translocation of the insulin-sensitive glucose transporters from an internal site to the plasma membrane, as it is known for insulin, the amount of GLUT4 protein was determined in plasma membrane (PM) and low density microsome (LDM) fractions. […] These increases in GLUT4 content occurred without any significant change in the content of β1-integrin, a constitutive PM protein. Changes in the GLUT4 content of LDM mirrored, to a lesser extent, those reported in the PM (basal LDM content was decreased by 29 % and 12 % with insulin and tyramine plus orthovanadate respectively).
This study was carried out in order to determine whether the stimulation of glucose transport induced by the combination of benzylamine and orthovanadate was a consequence of alterations in the abundance of GLUT4 glucose carriers in the cell surface from adipose cells. Thus, isolated rat adipocytes were incubated in the absence or in the presence of insulin, benzylamine ([…]), orthovanadate ([…]) or the combination of benzylamine and orthovanadate, and 45 minutes later cells were homogenized and subjected to subcellular membrane fractionation. […] However, the incubation of cells with benzylamine and orthovanadate caused a 2.3-fold increase in the presence of GLUT4 in plasma membrane fractions. The effects of insulin or the combination benzylamine and orthovanadate on GLUT4 abundance in plasma membranes were specific and the plasma membrane marker β1-integrin remained unaltered after incubation with these agents. The recruitment of GLUT4 to the plasma membranes detected by insulin or the combination of benzylamine and orthovanadate was concomitant with a reduction of GLUT4 abundance in light microsomes. This was consistent with the view that benzylamine and orthovanadate translocate GLUT4 to the plasma membrane in isolated rat adipocytes.
A general note: In western blotting, separated proteins are transferred to a membrane and probed.

Series [1] has as its system streptozotocin-induced diabetic rats. Briefly: Chronic administration in streptozotocin-induced diabetic rats. The class given is in vivo. To be noted: for food and water consumption / weight of epididymal adipose tissue (adiposity): chronic treatment of diabetic rats. Here is the method: (§1) Based on the finding of potent insulin-like effects of in vitro incubation of benzylamine and vanadate, the chronic administration of these compounds in diabetic rats was tested. To this end, streptozotocin-induced diabetic rats were implanted subcutaneously with osmotic minipumps releasing benzylamine (84 µmol/kg/day) or were sham-operated. […] A group of animals was also subjected to daily i.p. injection of vanadate (50 µmol/kg body wt) for two weeks.
In other studies, rats were daily injected intraperitoneally with 25 µmol/kg vanadate for the first week and with 50 µmol/kg for the second week. […] However, the combination of benzylamine and vanadate reduced hyperglycemia in diabetic rats during the second week of treatment (FIG. 7).
The chronic treatment with benzylamine and vanadate caused a substantial decrease in food and water consumption which returned to normal levels and an increase in the weight of epididymal adipose tissue. All these variations occurred in the absence of changes in body weight. The effects on adiposity or food and water intake were not detected when benzylamine or vanadate was administered alone. Furthermore the normalisation of glycemia caused by chronic treatment with both benzylamine and vanadate takes place in the absence of changes in plasma insulin concentrations.

The format of series [2] is physicochemical. Here is the method:
as §1

The mark [3] stands for this setting: vanadate i.p. daily 25 µmol/kg first week and 50 µmol/kg second week, benzylamine 84 µmol/kg.

Turning to `NCc1ccccc1` [benzylamine], in the series with isolated rat adipocytes, the “2-deoxyglucose uptake (stimulatory effect)” value is on record as “no stimulatory effect”. Besides, in the series with GLUT4, the “abundance of GLUT4 in plasma membranes” value was “did not alter”. Moreover, in series [1], the “food and water consumption” value is “not detected”; the “weight of epididymal adipose tissue (adiposity)” value is on record as “not detected”. The glycemia result in series [1] (setting [3]) was “remained hyperglycemic”. Moreover, the “stability in implanted osmotic minipumps” value in series [2] is “stable for two weeks”.
Take `NCCc1ccc(O)cc1` [tyramine]: the glucose transport entry in the series with isolated rat adipocytes is “not activated”. Moreover, in the series with isolated rat adipocytes (hydrogen peroxide 0.01 mM, not shown), the “synergism with low, ineffective dose of hydrogen peroxide on glucose transport” value is recorded as “no synergism”. The “synergism with low, ineffective dose of insulin on glucose transport” value in the series on isolated rat adipocytes (insulin 10 pM, not shown) is on record as “no synergism”.
Regarding `OO` [hydrogen peroxide], the glucose transport entry with isolated rat adipocytes is “dose-dependently stimulated”. Moreover, in the series with isolated rat adipocytes (Rattus norvegicus, Adipocyte, 0.75 h, 1 mM H2O2, preincubation 45 min, n = 23, read-out: effect relative to the maximal insulin effect), the activation at 1000 µM amounted to 46%. Moreover, the fold induction at 1000 µM with isolated rat adipocytes (Rattus norvegicus, Adipocyte, 0.75 h, 1 mM H2O2, preincubation 45 min, n = 23, read-out: factor by which basal transport is multiplied) came out at 5 ± 0.8.
`CNC[C@H](O)c1cccc(O)c1` [phenylephrine]: the glucose transport result in the series on isolated rat adipocytes is on record as “not activated”.
Regarding `NCCc1c[nH]c2ccc(O)cc12` [serotonin], the glucose transport result in the series with isolated rat adipocytes is given as “not activated”.
In the case of `[Na+].[Na+].[Na+].[O]=[V]([O-])([O-])[O-]` [orthovanadate, sodium orthovanadate Na3VO4], in the series on isolated rat adipocytes (1 mM tyramine, 0.1 mM orthovanadate, n = 40), the “stimulation of glucose transport relative to that of 100 nM insulin (maximal insulin effect)” value stood at 5 ± 1%. In addition, the “2-deoxyglucose uptake (stimulatory effect)” value in the series with isolated rat adipocytes was “did not stimulate”. The “basal or insulin-stimulated glucose transport” value with isolated rat adipocytes (orthovanadate alone 0.1 mM) is “did not affect”. Further, the “abundance of GLUT4 in plasma membranes” value with GLUT4 is “did not alter”. Further, the “amount of GLUT4 protein in the PM” value in the series with GLUT4 (Western blot, orthovanadate 0.1 mM, n = 3) was found to be 103 ± 8%. Moreover, in series [1], the “food and water consumption” value was “not detected”; the “weight of epididymal adipose tissue (adiposity)” value was “not detected”. Moreover, in series [1] (vanadate 50 µmol/kg body wt daily i.p. for two weeks, benzylamine 84 µmol/kg/day by osmotic minipumps), the glycemia result is “moderate reduction”. Besides, the glycemia entry in series [1] (setting [3]) is on record as “remained hyperglycemic”.
In general, inhibition refers to the drop in the measured response relative to a control, in per cent. With `NNC(N)=O` [semicarbazide], the inhibition at 100 µM in the series on isolated rat adipocytes (Rattus norvegicus, Adipocyte, semicarbazide 0.1 mM, read-out: inhibition of the glucose transport promoted by 1 mM tyramine plus orthovanadate) amounted to 59 ± 7%. For the same compound, in the series on isolated rat adipocytes (semicarbazide 1 mM), the “benzylamine-orthovanadate-stimulated 2-deoxyglucose uptake” value was “abolished” and the “glucose transport stimulated by 1 mM hydrogen peroxide plus 0.1 mM orthovanadate” value is listed as “unaffected”.
